Structures can show the parent of a compound that is named as a salt.
Assays:
Cif [1] = biological target: T1, Cif (Pseudomonas aeruginosa (strain UCBPP-PA14), UniProt A0A0H2ZD27); assay: Primary high throughput screen with fluorogenic substrate CMNGC; assay type: biochemical; conditions: primary screen; test compounds at 10 μM, 1 μM Cif, 25 μM CMNGC, 60 minutes;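 note: fluorescence of 200 µL reactions in 96-well plates read on a plate reader, inhibitor at tenfold molar excess over Cif enzyme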
Cif [2] = biological target: T1, Cif; assay: Secondary screen (sextuplicate) with fluorogenic substrate CMNGC; assay type: biochemical; conditions: for % Inhibition, Mean ± SD / % Inhibition, plate 1 / % Inhibition, plate 2 / % Inhibition, plate 3 / % Inhibition, plate 4 / % Inhibition, plate 5 / % Inhibition, plate 6: secondary screen, 10 μM; for % Inhibition, Mean ± SD: mean of six plates; for % Inhibition, plate 1: plate number 1; for % Inhibition, plate 2: plate number 2; for % Inhibition, plate 3: plate number 3; for % Inhibition, plate 4: plate number 4; for % Inhibition, plate 5: plate number 5; for % Inhibition, plate 6: plate number 6;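 for all read-outs here: purified enzyme assay in 96-well plates, 200 µL volume, fluorescence recorded each minute across a 60 min reaction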
[3] = read-out: % Inhibition, Mean ± SD
[4] = read-out: % Inhibition, plate 1
[5] = read-out: % Inhibition, plate 2
[6] = read-out: % Inhibition, plate 3
[7] = read-out: % Inhibition, plate 4
[8] = read-out: % Inhibition, plate 5
[9] = read-out: % Inhibition, plate 6

T1 sequence (A0A0H2ZD27 25-319 limits assumed): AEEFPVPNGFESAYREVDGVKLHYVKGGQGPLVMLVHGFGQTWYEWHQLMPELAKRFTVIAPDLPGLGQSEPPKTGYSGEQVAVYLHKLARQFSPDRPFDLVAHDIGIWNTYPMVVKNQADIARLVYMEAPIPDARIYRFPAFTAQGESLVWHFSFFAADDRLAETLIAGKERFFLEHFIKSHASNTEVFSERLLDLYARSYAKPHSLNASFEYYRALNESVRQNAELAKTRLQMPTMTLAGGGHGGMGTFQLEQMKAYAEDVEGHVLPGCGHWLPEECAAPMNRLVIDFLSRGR

Compound | inhibition at 10 µM (Cif [1]) | inhibition at 10 µM (Cif [2]; [3]) | inhibition at 10 µM (Cif [2]; [4]) | inhibition at 10 µM (Cif [2]; [5]) | inhibition at 10 µM (Cif [2]; [6]) | inhibition at 10 µM (Cif [2]; [7]) | inhibition at 10 µM (Cif [2]; [8]) | inhibition at 10 µM (Cif [2]; [9]) | % Inhibition, Mean ± SD (Cif [2]) | % Inhibition, plate 1 (Cif [2]) | % Inhibition, plate 2 (Cif [2]) | % Inhibition, plate 3 (Cif [2]) | % Inhibition, plate 4 (Cif [2]) | % Inhibition, plate 5 (Cif [2]) | % Inhibition, plate 6 (Cif [2]) | % Inhibition (Cif [1])
C[C@]12CC[C@H]3C(=CCc4cc(O)ccc43)[C@@H]1CCC2=O [Equilin] | 71% |  |  |  |  |  |  |  |  |  |  |  |  |  |  | 
CC(=O)[C@@]1(O)CC[C@H]2[C@@H]3C[C@H](C)C4=CC(=O)C=C[C@]4(C)[C@@]3(F)[C@@H](O)C[C@@]21C [Fluorometholone] | 31% | 18 ± 2% | 18% | 15% | 19% | 16% | 21% | 16% |  |  |  |  |  |  |  | 
CN1CCCC(n2nc(Cc3ccc(Cl)cc3)c3ccccc3c2=O)CC1 (stereo not drawn) [Azelastine hydrochloride] | 48% | 34 ± 4% | 30% | 31% | 33% | 34% | 42% | 30% |  |  |  |  |  |  |  | 
CC(=O)CC(c1ccccc1)c1c(O)c2ccccc2oc1=O (stereo not drawn) [Warfarin] | 32% | 15 ± 3% | 12% | 12% | 17% | 15% | 20% | 17% |  |  |  |  |  |  |  | 
C[N+](C)(C)CC(=O)O [Betaine hydrochloride] | 33% | 13 ± 6% | 6% | 10% | 9% | 17% | 20% | 18% |  |  |  |  |  |  |  | 
CCOC(=O)[C@H](CCc1ccccc1)N[C@@H](C)C(=O)N1CCC[C@H]1C(=O)O [Enalapril maleate] | 31% | 4 ± 8% | -6% | 13% | 1% | 9% | 10% | -3% |  |  |  |  |  |  |  | 
Nc1nc(N)c2nc(-c3ccccc3)c(N)nc2n1 [Triamterene] | 35% | 19 ± 5% | 15% | 17% | 18% | 21% | 28% | 16% |  |  |  |  |  |  |  | 
O=C(CCCCCCC(=O)Nc1ccccc1)NO [Vorinostat] | 35% | 13 ± 6% | 5% | 13% | 8% | 14% | 18% | 22% |  |  |  |  |  |  |  | 
C[C@H]1O[C@H](O[C@H]2[C@H](O)[C@@H](O)[C@@H](O[C@H]3[C@H](O)[C@@H](O)C(O)O[C@@H]3CO)O[C@@H]2CO)[C@H](O)[C@@H](O)[C@@H]1N[C@H]1C=C(CO)[C@@H](O)[C@H](O)[C@H]1O (stereo partly drawn) [Acarbose] | 47% |  |  |  |  |  |  |  |  |  |  |  |  |  |  | 
Nc1ccc(S(=O)(=O)Nc2ncccn2)cc1 [Sulfadiazine] | 42% | 23 ± 4% | 23% | 24% | 24% | 26% | 28% | 15% |  |  |  |  |  |  |  | 
NCC(O)c1ccc(O)cc1 (stereo not drawn) [Octopamine hydrochloride] | 42% | 11 ± 6% | 1% | 6% | 12% | 9% | 18% | 17% |  |  |  |  |  |  |  | 
C[C@]12CC[C@@H]3c4ccc(O)cc4CC[C@H]3[C@@H]1CC[C@@H]2O [Estradiol] | 39% | 4 ± 5% | 4% | 5% | 5% | 6% | 8% | -6% |  |  |  |  |  |  |  | 
CCCCCCCCCCCCCCCCOP(=O)([O-])OCC[N+](C)(C)C [Miltefosine] | 34% | 8 ± 4% | 4% | 3% | 11% | 10% | 11% | 11% |  |  |  |  |  |  |  | 
C=CC1=C(C)c2cc3[nH]c(cc4nc(cc5[nH]c(cc1n2)c(C)c5CCC(=O)O)C(CCC(=O)O)=C4C)c(C)c3C=C [Protoporphyrin ix] | 46% | 20 ± 7% | 12% | 16% | 21% | 18% | 28% | 29% |  |  |  |  |  |  |  | 
C=CCc1ccc(O)c(OC)c1 [Eugenol] | 32% | 3 ± 4% | 4% | 0% | 7% | 4% | 6% | -4% |  |  |  |  |  |  |  | 
CN(C)CCCN1c2ccccc2Sc2ccc(C(F)(F)F)cc21 [Triflupromazine hydrochloride] | 33% | 2 ± 6% | 4% | 10% | -2% | 1% | 8% | -6% |  |  |  |  |  |  |  | 
CCCCCCCCCCCCCCOS(=O)(=O)O [Sodium tetradecyl sulfate] | 78% | 9 ± 4% | 9% | 4% | 12% | 12% | 13% | 5% |  |  |  |  |  |  |  | 
Nc1nc2c(ncn2CCC(CO)CO)c(=O)[nH]1 [Penciclovir] | 45% | 0% | -11% | 1% | 2% | 3% | 7% | -3% |  |  |  |  |  |  |  | 
O=C(CCCN1CCN(c2ccccn2)CC1)c1ccc(F)cc1 [Azaperone] | 79% |  |  |  |  |  |  |  |  |  |  |  |  |  |  | 
Candicidin |  |  |  |  |  |  |  |  | 15 ± 7% | 3% | 13% | 17% | 19% | 23% | 18% | 41%
CC(C)Cc1ccc(C(C)C(=O)O)cc1 (stereo not drawn) [Ibuprofen] | 48% | 7 ± 5% | 1% | 6% | 5% | 8% | 15% | 7% |  |  |  |  |  |  |  | 
C[C@]12CCC(=O)C=C1C=C[C@@H]1[C@@H]2CC[C@@]2(C)[C@H]1CC[C@@]21CCC(=O)O1 [Canrenone] | 36% | 24 ± 5% | 16% | 27% | 20% | 24% | 28% | 27% |  |  |  |  |  |  |  | 
C=C(NC(=O)C(=C)NC(=O)c1csc(C2=N[C@@H]3c4csc(n4)[C@H]4NC(=O)c5csc(n5)[C@H]([C@](C)(O)[C@@H](C)O)NC(=O)[C@H]5CSC(=N5)/C(=C/C)NC(=O)[C@H]([C@@H](C)O)NC(=O)c5csc(n5)[C@]3(CC2)NC(=O)[C@H](C)NC(=O)C(=C)NC(=O)[C@H](C)NC(=O)[C@H]([C@@H](C)CC)N[C@@H]2C=Cc3c([C@H](C)O)cc(nc3[C@H]2O)C(=O)O[C@@H]4C)n1)C(N)=O [Thiostrepton] | 46% | 28 ± 12% | 14% | 15% | 25% | 27% | 43% | 42% |  |  |  |  |  |  |  | 
C[C@@H]1C[C@H]2[C@@H]3CCC4=CC(=O)C=C[C@]4(C)[C@@]3(F)[C@@H](O)C[C@]2(C)[C@H]1C(=O)CO [Desoxymetasone] |  |  |  |  |  |  |  |  | 39 ± 4% | 34% | 42% | 34% | 40% | 42% | 41% | 66%
CN(C)CCOc1ccc(/C(=C(/CCCl)c2ccccc2)c2ccccc2)cc1 [Toremiphene citrate] | 31% | 10 ± 4% | 3% | 7% | 13% | 12% | 15% | 11% |  |  |  |  |  |  |  | 
NC[C@H]1O[C@H](O[C@H]2[C@H](O)[C@@H](O[C@H]3O[C@H](CO)[C@@H](O)[C@H](N)[C@H]3O)[C@H](N)C[C@@H]2N)[C@H](N)C[C@@H]1O [Tobramycin] | 40% | -8 ± 7% | -5% | -7% | -5% | -12% | 0% | -21% |  |  |  |  |  |  |  | 
N#C[C@@H]1C[C@@H]2C[C@@H]2N1C(=O)[C@@H](N)C12CC3CC(CC(O)(C3)C1)C2 [Saxagliptin] | 35% | 5 ± 4% | 5% | 0% | 6% | 6% | 11% | 3% |  |  |  |  |  |  |  | 
CC1=NN(c2ccccc2)C(=O)C1 [Edaravone] | 43% | 16 ± 7% | 21% | 13% | 13% | 26% | 19% | 6% |  |  |  |  |  |  |  | 
O=C([O-])c1ccccc1-c1c2cc(Br)c(=O)cc-2oc2[c]([Hg+])c([O-])c(Br)cc12.[Na+].[Na+].[OH-] [Merbromin] |  |  |  |  |  |  |  |  |  |  |  |  |  |  |  | 47%

From US10322118B2, “Compounds and methods for inhibiting Cif virulence factor” (priority 2012, dated 2019)
